Test results as given in PubChem BioAssay AID330 (DTP/NCI, 2004).
Toxic doses and inconclusive results are not listed. How the source made its calls: active means survival T/C of 150% or more; inactive means T/C below 125% in these data.

Tested on: P388 leukemia ip, CD2F1 mice, survival T/C
Experiment: NCI In Vivo Anticancer Drug Screen. Data for tumor model P388 Leukemia (intraperitoneal) in CD2F1 (CDF1) mice
Settings: endpoint: median survival time, higher = longer survival
In short: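 Mice carrying the transplanted tumor received test compound or vehicle. Survival was recorded in each group, and the value is the treated-group measurement divided by that of the vehicle-treated control group.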

[1] = dose: 60.0 mg/kg/injection, schedule: Q01DX005 (ip), vehicle: saline with Tween-80
[2] = dose: 120.0 mg/kg/injection, schedule: Q01DX005 (ip), vehicle: saline with Tween-80
[3] = dose: 240.0 mg/kg/injection, schedule: Q01DX005 (ip), vehicle: saline with Tween-80
[4] = dose: 50.0 mg/kg/injection, schedule: Q01DX009 (ip), vehicle: saline with Tween-80
[5] = dose: 100.0 mg/kg/injection, schedule: Q01DX009 (ip), vehicle: saline with Tween-80
[6] = dose: 200.0 mg/kg/injection, schedule: Q01DX009 (ip), vehicle: saline with Tween-80
[7] = dose: 50.0 mg/kg/injection, schedule: Q01DX005 (ip), vehicle: saline with Tween-80
[8] = dose: 100.0 mg/kg/injection, schedule: Q01DX005 (ip), vehicle: saline with Tween-80
[9] = dose: 200.0 mg/kg/injection, schedule: Q01DX005 (ip), vehicle: saline with Tween-80
[10] = dose: 50.0 mg/kg/injection, schedule: Q01DX009 (ip), vehicle: saline
[11] = dose: 100.0 mg/kg/injection, schedule: Q04DX003 (ip), vehicle: saline with Tween-80
[12] = dose: 200.0 mg/kg/injection, schedule: Q04DX003 (ip), vehicle: saline with Tween-80
[13] = dose: 50.0 mg/kg/injection, schedule: Q01DX005 (ip), vehicle: Klucel (hydroxypropylcellulose) (HPC)
[14] = dose: 100.0 mg/kg/injection, schedule: Q01DX005 (ip), vehicle: Klucel (hydroxypropylcellulose) (HPC)
[15] = dose: 200.0 mg/kg/injection, schedule: Q01DX005 (ip), vehicle: Klucel (hydroxypropylcellulose) (HPC)

Measured: T/C

COc1nc(NC2OC(COC(C)=O)C(OC(C)=O)C(OC(C)=O)C2OC(C)=O)c(N=C(C)C(C)=O)c(=O)n1C (stereo not given)
inactive: [1] 99 % of control | [2] 95 % of control | [3] 95 % of control

O=C(CC[N+](=O)[O-])OCC1OC(OC(=O)CC[N+](=O)[O-])C(O)C(O)C1O (stereo not given)
inactive: dose: 12.5 mg/kg/injection, schedule: Q01DX005 (ip), vehicle: water 98 % of control | dose: 25.0 mg/kg/injection, schedule: Q01DX001 (ip), vehicle: saline + alcohol 102 % of control | dose: 25.0 mg/kg/injection, schedule: Q01DX005 (ip), vehicle: water 104 % of control | dose: 50.0 mg/kg/injection, schedule: Q01DX001 (ip), vehicle: saline + alcohol 96 % of control | dose: 50.0 mg/kg/injection, schedule: Q01DX005 (ip), vehicle: water 97 % of control | dose: 100.0 mg/kg/injection, schedule: Q01DX001 (ip), vehicle: saline + alcohol 105 % of control | dose: 100.0 mg/kg/injection, schedule: Q01DX005 (ip), vehicle: water 95 % of control | dose: 200.0 mg/kg/injection, schedule: Q01DX005 (ip), vehicle: water 100 % of control

CC1=C2CC(C)(C)/C=C\C(=O)/C(C)=C\C3=CC(C)(O)CC3(O2)C1=O (stereo not given)
inactive: dose: 0.92 mg/kg/injection, schedule: Q01DX009 (ip), vehicle: saline with Tween-80 102 % of control | dose: 1.25 mg/kg/injection, schedule: Q01DX009 (ip), vehicle: Klucel (hydroxypropylcellulose) (HPC) 109 % of control | dose: 1.84 mg/kg/injection, schedule: Q01DX009 (ip), vehicle: saline with Tween-80 98 % of control | dose: 2.5 mg/kg/injection, schedule: Q01DX009 (ip), vehicle: Klucel (hydroxypropylcellulose) (HPC) 120 % of control | dose: 3.67 mg/kg/injection, schedule: Q01DX009 (ip), vehicle: saline with Tween-80 116 % of control | dose: 5.0 mg/kg/injection, schedule: Q01DX009 (ip), vehicle: Klucel (hydroxypropylcellulose) (HPC) 118 % of control | dose: 7.34 mg/kg/injection, schedule: Q01DX009 (ip), vehicle: saline with Tween-80 118 % of control | dose: 10.0 mg/kg/injection, schedule: Q01DX009 (ip), vehicle: Klucel (hydroxypropylcellulose) (HPC) 120 % of control

CCOC(=O)C(C)(C)Oc1cccc2c1S(=O)(=O)c1ccccc1-2
inactive: [4] 95 % of control | [5] 93 % of control | [6] 100 % of control

CN=C(N)N/N=C(\C)c1ccc(-c2ccccc2)cc1
inactive: dose: 25.0 mg/kg/injection, schedule: Q04DX002 (ip), vehicle: saline with Tween-80 105 % of control | dose: 50.0 mg/kg/injection, schedule: Q04DX002 (ip), vehicle: saline with Tween-80 106 % of control

CN(C)C1=NS(=O)(=O)c2ccccc21
inactive: [7] 100 % of control | [8] 106 % of control | [9] 93 % of control

CNC(=S)N(C)C
inactive: [10] 98 % of control | dose: 100.0 mg/kg/injection, schedule: Q01DX009 (ip), vehicle: saline 99 % of control | dose: 200.0 mg/kg/injection, schedule: Q01DX009 (ip), vehicle: saline 109 % of control

Cc1ccc2c(c1)CCCN2C=O
inactive: dose: 50.0 mg/kg/injection, schedule: Q04DX003 (ip), vehicle: saline with Tween-80 105 % of control | [11] 100 % of control | [12] 110 % of control

c1ccc(-c2nc[nH]c2-c2ccccc2)cc1
inactive: dose: 50.0 mg/kg/injection, schedule: Q01DX009 (ip), vehicle: Klucel (hydroxypropylcellulose) (HPC) 96 % of control | dose: 100.0 mg/kg/injection, schedule: Q01DX009 (ip), vehicle: Klucel (hydroxypropylcellulose) (HPC) 97 % of control | dose: 100.0 mg/kg/injection, schedule: Q01DX009 (ip), vehicle: suspension in saline 101 % of control | dose: 200.0 mg/kg/injection, schedule: Q01DX009 (ip), vehicle: Klucel (hydroxypropylcellulose) (HPC) 98 % of control | dose: 200.0 mg/kg/injection, schedule: Q01DX009 (ip), vehicle: suspension in saline 96 % of control | dose: 400.0 mg/kg/injection, schedule: Q01DX009 (ip), vehicle: Klucel (hydroxypropylcellulose) (HPC) 97 % of control

CC1=C(c2ccco2)C2(c3ccco3)C(C(=O)c3ccccc3)C2(C)C1=O (stereo not given)
inactive: [7] 90 % of control | [8] 90 % of control | [9] 95 % of control

C=C(C)[C@H]1CCC23C[C@@H]4C(C[C@H]2C1(C)CCC(=O)O)C4(C)C3 (stereo not given in full)
inactive: dose: 5.5 mg/kg/injection, schedule: Q01DX005 (ip), vehicle: Klucel (hydroxypropylcellulose) (HPC) 100 % of control | dose: 11.0 mg/kg/injection, schedule: Q01DX005 (ip), vehicle: Klucel (hydroxypropylcellulose) (HPC) 106 % of control | dose: 22.0 mg/kg/injection, schedule: Q01DX005 (ip), vehicle: Klucel (hydroxypropylcellulose) (HPC) 100 % of control | dose: 25.0 mg/kg/injection, schedule: Q01DX005 (ip), vehicle: Klucel (hydroxypropylcellulose) (HPC) 91 % of control | dose: 44.0 mg/kg/injection, schedule: Q01DX005 (ip), vehicle: Klucel (hydroxypropylcellulose) (HPC) 100 % of control | [13] 100 % of control | [14] 91 % of control | [15] 91 % of control

CCCCCCCCCCC(=O)CC
inactive: [5] 104 % of control | [11] 100 % of control | [6] 104 % of control | [12] 100 % of control | dose: 400.0 mg/kg/injection, schedule: Q01DX009 (ip), vehicle: saline with Tween-80 109 % of control | dose: 400.0 mg/kg/injection, schedule: Q04DX003 (ip), vehicle: saline with Tween-80 100 % of control

C=CCCCCCCCCCSC(=N)N
inactive: dose: 6.25 mg/kg/injection, schedule: Q01DX009 (ip), vehicle: Klucel (hydroxypropylcellulose) (HPC) 98 % of control | dose: 12.5 mg/kg/injection, schedule: Q01DX009 (ip), vehicle: Klucel (hydroxypropylcellulose) (HPC) 93 % of control | dose: 25.0 mg/kg/injection, schedule: Q01DX009 (ip), vehicle: Klucel (hydroxypropylcellulose) (HPC) 99 % of control

CC(C(=O)c1ccc(Cl)cc1)C1=NC2NN(c3ccccc3)C(=O)C2=C1C(C)C(=O)c1ccc(Cl)cc1 (stereo not given)
inactive: [1] 99 % of control | [2] 101 % of control | [3] 100 % of control

CCC1C[N+]2(C)CCc3cc(OC)c(OC)cc3C2CC1=O (stereo not given)
inactive: dose: 12.5 mg/kg/injection, schedule: Q01DX009 (ip), vehicle: saline 94 % of control | dose: 25.0 mg/kg/injection, schedule: Q01DX009 (ip), vehicle: saline 93 % of control | [4] 106 % of control | [10] 100 % of control

COC(=O)C1CC2C(=O)N(C)C=CC12 (stereo not given)
inactive: dose: 100.0 mg/kg/injection, schedule: Q04DX002 (ip), vehicle: saline with Tween-80 104 % of control | dose: 200.0 mg/kg/injection, schedule: Q04DX002 (ip), vehicle: saline with Tween-80 98 % of control | dose: 400.0 mg/kg/injection, schedule: Q04DX002 (ip), vehicle: saline with Tween-80 102 % of control

Cc1ccccc1N=Cc1ccc(N(C)C)cc1
inactive: [5] 91 % of control | [6] 87 % of control

C[C@@H]1O[C@H]2O[C@@H]3[C@@H](C)O[C@@H](c4ccc5c(c4O)C(=O)c4ccc(C[C@@](C)(O)CC(=O)O)c(O)c4C5=O)C[C@H]3O[C@H]2CC1=O
inactive: dose: 23.5 mg/kg/injection, schedule: Q01DX005 (ip), vehicle: Klucel (hydroxypropylcellulose) (HPC) 105 % of control | dose: 47.0 mg/kg/injection, schedule: Q01DX005 (ip), vehicle: Klucel (hydroxypropylcellulose) (HPC) 105 % of control | dose: 94.0 mg/kg/injection, schedule: Q01DX005 (ip), vehicle: Klucel (hydroxypropylcellulose) (HPC) 97 % of control

C(=N/OC(c1ccccc1)(c1ccccc1)c1ccccc1)/c1ccccc1
inactive: dose: 25.0 mg/kg/injection, schedule: Q04DX003 (ip), vehicle: saline 104 % of control | dose: 75.0 mg/kg/injection, schedule: Q04DX003 (ip), vehicle: saline 100 % of control | dose: 150.0 mg/kg/injection, schedule: Q04DX003 (ip), vehicle: saline 95 % of control

CCCCN(CCCC)CCNc1ccc(C)c2sc3c(Cl)cccc3c(=O)c12
inactive: [13] 99 % of control | [14] 108 % of control | [15] 105 % of control
